{"source": "patent US20020137929A1", "about": "“1 - (3-heterocyclylphenyl) isothiourea, -isourea, -guanidine and -amidine herbicidal agents” (Intellectual Property Department, BASF Aktiengesellschaft, priority 1998, published 2002)", "key": {"ABUTH (Velvetleaf) [1]": {"tested_on": "ABUTH (Velvetleaf)", "assay": "Postemergence herbicidal evaluation", "format": "in vivo, Abutilon theophrasti", "conditions": "postemergence", "method_in_brief": "(§1)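 First, seedlings were raised for around two weeks. Next, test material in 50/50 acetone/water containing 0.5% TWEEN 20 was sprayed through a nozzle at 40 psi, equivalent to about 0.0156–0.500 kg/ha. Finally, after 4–5 weeks in the greenhouse, plants were rated 0–9.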"}, "[2]": {"tested_on": "IPOHE (Morningglory, Ivyleaf)", "assay": "Postemergence herbicidal evaluation", "format": "in vivo, Ipomoea hederacea", "conditions": "postemergence", "method_in_brief": "as §1"}, "SETVI (Foxtail, Green)": {"tested_on": "SETVI (Foxtail, Green)", "assay": "Postemergence herbicidal evaluation", "format": "in vivo, Setaria viridis", "conditions": "postemergence", "method_in_brief": "as §1"}, "[3]": {"tested_on": "GLXMAW (Soybean, Williams)", "assay": "Postemergence herbicidal evaluation", "format": "in vivo, Glycine max, (L.) Merr. cv Williams", "conditions": "postemergence", "method_in_brief": "as §1"}, "ZEAMX (Corn, Field)": {"tested_on": "ZEAMX (Corn, Field)", "assay": "Postemergence herbicidal evaluation", "format": "in vivo, Zea mays", "conditions": "postemergence", "method_in_brief": "as §1"}, "ABUTH (Velvetleaf) [4]": {"tested_on": "ABUTH (Velvetleaf)", "assay": "Preemergence herbicidal evaluation", "format": "in vivo, Abutilon theophrasti", "conditions": "preemergence, rated 4-5 weeks after treatment, 0-9 scale", "method_in_brief": "(§2)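 Scores (0–9) reflect visual comparison with control plants for stand, vigor, malformation, size and chlorosis. Compound was applied to the soil after sowing, before emergence, as an aqueous acetone spray (about 0.0156–0.500 kg/ha), and cups were kept in a greenhouse for 4–5 weeks.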"}, "AMBEL (Ragweed, Common)": {"tested_on": "AMBEL (Ragweed, Common)", "assay": "Preemergence herbicidal evaluation", "format": "in vivo, Ambrosia artemisifolia", "conditions": "preemergence, rated 4-5 weeks after treatment, 0-9 scale", "method_in_brief": "as §2"}, "CASOB (Sicklepod)": {"tested_on": "CASOB (Sicklepod)", "assay": "Preemergence herbicidal evaluation", "format": "in vivo, Cassia obtusifolia", "conditions": "preemergence, rated 4-5 weeks after treatment, 0-9 scale", "method_in_brief": "as §2"}, "[5]": {"tested_on": "IPOHE (Morningglory, Ivyleaf)", "assay": "Preemergence herbicidal evaluation", "format": "in vivo, Ipomoea hederacea", "conditions": "preemergence, rated 4-5 weeks after treatment, 0-9 scale", "method_in_brief": "as §2"}, "ECHCG (Barnyardgrass)": {"tested_on": "ECHCG (Barnyardgrass)", "assay": "Preemergence herbicidal evaluation", "format": "in vivo, Echinochloa crus-galli", "conditions": "preemergence, rated 4-5 weeks after treatment, 0-9 scale", "method_in_brief": "as §2"}, "[6]": {"tested_on": "ECHORC (Watergrass (Calif.))", "assay": "Preemergence weed control under flooded paddy conditions", "format": "in vivo, Echinochloa oryzoides", "conditions": "rated 3-4 weeks after treatment", "method_in_brief": "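Seeds or propagules sown in silt loam kept flooded 1.5-3 cm; compounds in 50/50 acetone/water pipetted into flood water at about 0.0313 to 0.500 kg/ha. Greenhouse; visual 0-9 rating versus untreated control 3-4 weeks after treatment.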"}, "CYPSE (Flatsedge)": {"tested_on": "CYPSE (Flatsedge)", "assay": "Preemergence weed control under flooded paddy conditions", "format": "in vivo, Cyperus serotinus", "conditions": "rated 3-4 weeks after treatment", "method_in_brief": "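Visual injury scored 0-9 against control three to four weeks post-treatment, greenhouse-grown. Application: acetone/water (50/50) solutions dosed directly into flood water (1.5-3 cm over silt loam, planted top 0.5 cm), roughly 0.0313 to 0.500 kg/ha active ingredient.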"}, "[7]": {"tested_on": "ECHORC (Watergrass (Calif.))", "assay": "Postemergence weed control under flooded paddy conditions", "format": "in vivo, Echinochloa oryzoides", "conditions": "postemergence weeds, rated 3 to 4 weeks after treatment", "method_in_brief": "(§3)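 Weeds 3 to 5 cm tall and rice seedlings at the 1.5 to 2.5 leaf stage were flooded, with water held 1.5 to 3 cm above the soil. Compounds in 50/50 v/v aqueous/acetone went into the flood water at about 0.0313 to 0.500 kg/ha. Visual 0-9 ratings versus control were made 3 to 4 weeks later.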"}, "CYPIR (Rice Flatsedge)": {"tested_on": "CYPIR (Rice Flatsedge)", "assay": "Postemergence weed control under flooded paddy conditions", "format": "in vivo, Cyperus iria", "conditions": "postemergence weeds, rated 3 to 4 weeks after treatment", "method_in_brief": "as §3"}}, "data": [{"smiles": "C=CCN1C(=O)C(CC(=O)OC(C)C(=O)OCC)SC1=Nc1cc(-n2c(=O)ccn(C)c2=O)c(F)cc1Cl", "note": "[Compound 94, 3-Allyl-2-{{2-chloro-5-[3,6-dihydro-3-methyl-2,6-dioxo-1(2H)-pyrimidinyl]-4-fluorophenyl}imino}-4-oxo-5-thiazolidineacetic acid, ester with ethyl lactate, (R,S)-]", "values": [{"measurement": "ABUTH herbicidal rating", "setting": "ABUTH (Velvetleaf) [1]; rate 0.0158 kg/ha", "value": 9.0}, {"measurement": "ABUTH herbicidal rating", "setting": "ABUTH (Velvetleaf) [1]; rate 0.0315 kg/ha", "value": 9.0}, {"measurement": "ABUTH herbicidal rating", "setting": "ABUTH (Velvetleaf) [1]; rate 0.0630 kg/ha", "value": 9.0}, {"measurement": "IPOHE herbicidal rating", "setting": "[2]; rate 0.0158 kg/ha", "value": 9.0}, {"measurement": "IPOHE herbicidal rating", "setting": "[2]; rate 0.0315 kg/ha", "value": 9.0}, {"measurement": "IPOHE herbicidal rating", "setting": "[2]; rate 0.0630 kg/ha", "value": 9.0}, {"measurement": "SETVI herbicidal rating", "setting": "SETVI (Foxtail, Green); rate 0.0158 kg/ha", "value": 9.0}, {"measurement": "SETVI herbicidal rating", "setting": "SETVI (Foxtail, Green); rate 0.0315 kg/ha", "value": 9.0}, {"measurement": "SETVI herbicidal rating", "setting": "SETVI (Foxtail, Green); rate 0.0630 kg/ha", "value": 9.0}, {"measurement": "GLXMAW herbicidal rating", "setting": "[3]; rate 0.0158 kg/ha", "value": 9.0}, {"measurement": "GLXMAW herbicidal rating", "setting": "[3]; rate 0.0315 kg/ha", "value": 9.0}, {"measurement": "GLXMAW herbicidal rating", "setting": "[3]; rate 0.0630 kg/ha", "value": 9.0}, {"measurement": "ZEAMX herbicidal rating", "setting": "ZEAMX (Corn, Field); rate 0.0158 kg/ha", "value": 8.5}, {"measurement": "ZEAMX herbicidal rating", "setting": "ZEAMX (Corn, Field); rate 0.0315 kg/ha", "value": 8.5}, {"measurement": "ZEAMX herbicidal rating", "setting": "ZEAMX (Corn, Field); rate 0.0630 kg/ha", "value": 9.0}, {"measurement": "ABUTH rating", "setting": "ABUTH (Velvetleaf) [4]; 0.0156 kg/ha", "value": 0.0}, {"measurement": "ABUTH rating", "setting": "ABUTH (Velvetleaf) [4]; 0.0313 kg/ha", "value": 9.0}, {"measurement": "ABUTH rating", "setting": "ABUTH (Velvetleaf) [4]; 0.0625 kg/ha", "value": 9.0}, {"measurement": "ABUTH rating", "setting": "ABUTH (Velvetleaf) [4]; 0.1250 kg/ha", "value": 9.0}, {"measurement": "ABUTH rating", "setting": "ABUTH (Velvetleaf) [4]; 0.2500 kg/ha", "value": 9.0}, {"measurement": "AMBEL rating", "setting": "AMBEL (Ragweed, Common); 0.0156 kg/ha", "value": 0.0}, {"measurement": "AMBEL rating", "setting": "AMBEL (Ragweed, Common); 0.0313 kg/ha", "value": 0.0}, {"measurement": "AMBEL rating", "setting": "AMBEL (Ragweed, Common); 0.0625 kg/ha", "value": 4.0}, {"measurement": "AMBEL rating", "setting": "AMBEL (Ragweed, Common); 0.1250 kg/ha", "value": 9.0}, {"measurement": "AMBEL rating", "setting": "AMBEL (Ragweed, Common); 0.2500 kg/ha", "value": 9.0}, {"measurement": "CASOB rating", "setting": "CASOB (Sicklepod); 0.0156 kg/ha", "value": 0.0}, {"measurement": "CASOB rating", "setting": "CASOB (Sicklepod); 0.0313 kg/ha", "value": 0.0}, {"measurement": "CASOB rating", "setting": "CASOB (Sicklepod); 0.0625 kg/ha", "value": 0.0}, {"measurement": "CASOB rating", "setting": "CASOB (Sicklepod); 0.1250 kg/ha", "value": 0.0}, {"measurement": "CASOB rating", "setting": "CASOB (Sicklepod); 0.2500 kg/ha", "value": 0.0}, {"measurement": "IPOHE rating", "setting": "[5]; 0.0156 kg/ha", "value": 0.0}, {"measurement": "IPOHE rating", "setting": "[5]; 0.0313 kg/ha", "value": 0.0}, {"measurement": "IPOHE rating", "setting": "[5]; 0.0625 kg/ha", "value": 0.0}, {"measurement": "IPOHE rating", "setting": "[5]; 0.1250 kg/ha", "value": 9.0}, {"measurement": "IPOHE rating", "setting": "[5]; 0.2500 kg/ha", "value": 9.0}, {"measurement": "ECHCG rating", "setting": "ECHCG (Barnyardgrass); 0.0156 kg/ha", "value": 0.0}, {"measurement": "ECHCG rating", "setting": "ECHCG (Barnyardgrass); 0.0313 kg/ha", "value": 0.0}, {"measurement": "ECHCG rating", "setting": "ECHCG (Barnyardgrass); 0.0625 kg/ha", "value": 0.0}, {"measurement": "ECHCG rating", "setting": "ECHCG (Barnyardgrass); 0.1250 kg/ha", "value": 0.0}, {"measurement": "ECHCG rating", "setting": "ECHCG (Barnyardgrass); 0.2500 kg/ha", "value": 0.0}, {"measurement": "ECHORC herbicidal effect rating", "setting": "[6]; 0.0313 kg/ha", "value": 0.0}, {"measurement": "ECHORC herbicidal effect rating", "setting": "[6]; 0.0625 kg/ha", "value": 0.0}, {"measurement": "ECHORC herbicidal effect rating", "setting": "[6]; 0.1250 kg/ha", "value": 2.0}, {"measurement": "ECHORC herbicidal effect rating", "setting": "[6]; 0.2500 kg/ha", "value": 7.0}, {"measurement": "CYPSE herbicidal effect rating", "setting": "CYPSE (Flatsedge); 0.1250 kg/ha", "value": 6.0}, {"measurement": "CYPSE herbicidal effect rating", "setting": "CYPSE (Flatsedge); 0.2500 kg/ha", "value": 9.0}, {"measurement": "Herbicidal rating ECHORC", "setting": "[7]; Rate 0.0313 kg/ha", "value": 0.0}, {"measurement": "Herbicidal rating ECHORC", "setting": "[7]; Rate 0.0625 kg/ha", "value": 0.0}, {"measurement": "Herbicidal rating ECHORC", "setting": "[7]; Rate 0.1250 kg/ha", "value": 2.0}, {"measurement": "Herbicidal rating ECHORC", "setting": "[7]; Rate 0.2500 kg/ha", "value": 7.0}, {"measurement": "Herbicidal rating CYPIR", "setting": "CYPIR (Rice Flatsedge); Rate 0.0313 kg/ha", "value": 0.0}, {"measurement": "Herbicidal rating CYPIR", "setting": "CYPIR (Rice Flatsedge); Rate 0.0625 kg/ha", "value": 3.0}, {"measurement": "Herbicidal rating CYPIR", "setting": "CYPIR (Rice Flatsedge); Rate 0.1250 kg/ha", "value": 4.0}, {"measurement": "Herbicidal rating CYPIR", "setting": "CYPIR (Rice Flatsedge); Rate 0.2500 kg/ha", "value": 4.0}]}]}
